Source: PMC7459823, “Characterization of Five Novel Anti-MRSA Compounds Identified Using a Whole-Animal Caenorhabditis elegans/Galleria mellonella Sequential-Screening Approach” (Antibiotics, 2020)
Converted amounts (≈) assume the structure as drawn. Where two headings read alike, the source gives them in different places.

Columns and labels:
[1] = system: MRSA-MW2 infection of C. elegans; experiment: C. elegans–MRSA-MW2 high-throughput screen (Z-score, alive versus dead worms); format: in vivo, Caenorhabditis elegans; settings: screening concentration 2.86 µg/mL, hits Z > 2
Text: The five compounds: (4,4′,4″-(4-propyl-[1H]-pyrazole-1,3,5-triyl)trisphenol, PPT; (1S,2S)-2-[2-[[3-(1H-benzimidazol-2-yl)propyl]methylamino]ethyl]-6-fluoro-1,2,3,4-tetrahydro-1-(1-methylethyl)-2- naphthalenyl cyclopropanecarboxylate dihydrochloride, NNC; 4,5,6,7-tetrabromobenzotriazole, TBB; 3-[2-[2-chloro-4-[3-(2,6-dichlorophenyl)-5-(1-methylethyl)-4-isoxazolyl]methoxy]phenyl] ethenyl] benzoic acid, GW4064; and N-(cyclopropylmethoxy)-3,4,5-trifluoro-2-[(4-iodo-2-methylphenyl)amino] benzamide, PD198306) were purchased from Tocris Bioscience at the following levels of purity: PPT: >99.7%, NNC: >98%, TBB: >99%, GW4064: >97%, and PD198306: 98.8%. […] Hits were identified based on Z-scores. Z-scores are calculated from the ratio of alive versus dead worms after treatment with test compounds and represents the number of standard deviations (SD) the test compound differs from the mean using the formula Z = (x − μ)/σ; where x is the raw sample score, μ is the mean of the population and σ is the standard deviation of the population. Samples with Z > 2σ are considered hits.

[2] = system: MRSA MW2 infection of Galleria mellonella larvae; experiment: G. mellonella–MRSA survival assay; format: in vivo; settings: larvae infected with MRSA MW2 5 × 10^5 CFU, compound 10 mg/kg 2 h after infection, monitored 120 h; untreated 1 day
Experimental: Larvae were infected with MRSA MW2 (5 × 10^5 CFU) in the left rear proleg, and after two hours, the compounds were introduced separately at 10 mg/kg into the right rear proleg and larvae survival was monitored for 120 h.
Assays were performed as described previously. Briefly, sixteen randomly selected G. mellonella larvae (Vanderhorst, Inc., St. Mary’s, OH, USA) between 300–350 mg were used for each test group. MRSA-MW2 was grown in Tryptic Soy Broth (TSB), washed with phosphate buffered saline (PBS, pH = 7.4), and diluted to OD600 = 0.3 before inoculation into G. mellonella larvae. A 10-μL inoculum was injected into the last left proleg using a 10-μL Hamilton syringe. After 2 h, compounds were administered into the last right proleg and larvae were incubated at 37 °C. G.mellonella survival was monitored for 120 h, and death was confirmed when there was no response. Killing curves and differences in survival were analyzed by the Kaplan–Meier method using GraphPad Prism version 8 (GraphPad Software, La Jolla, CA, USA). Statistical analysis (Kruskal–Wallis test) was carried out using the same program.

[3] = system: MRSA MW2; experiment: Broth microdilution antibacterial susceptibility (MIC/MBC), MRSA MW2; format: cell-based, Staphylococcus aureus
Experimental: (§1) In vitro antibacterial activities were determined using the broth microdilution method. Assays were performed as described in Clinical and Laboratory Standards Institute protocols in triplicate using cation-adjusted Muller–Hinton broth (Becton Dickinson and Company, Franklin Lakes, NJ, USA) in 96-well plates with a total assay volume of 100 µL. Two-fold serial dilutions of test compounds were prepared over the concentration range of 1–64 µg/mL. The bacterial concentration was adjusted to OD600 = 0.06. […] A 10 µL aliquot from each well in the MIC assays was plated onto Muller–Hinton agar (Becton Dickinson and Company, Franklin Lakes, NJ, USA) and incubated overnight at 37 °C. The lowest concentration of compound for which no growth was observed on agar plates was reported as the minimal bactericidal concentration (MBC).

[4] = system: clinical S. aureus isolate BF1; experiment: Broth microdilution MIC, clinical S. aureus isolate BF1; format: cell-based; settings: Staphylococcus aureus
Experimental: as §1

[5] = system: clinical S. aureus isolate BF2; experiment: Broth microdilution MIC, clinical S. aureus isolate BF2; format: cell-based; settings: Staphylococcus aureus
Experimental: as §1

[6] = system: clinical S. aureus isolate BF3; experiment: Broth microdilution MIC, clinical S. aureus isolate BF3; format: cell-based; settings: Staphylococcus aureus
Experimental: as §1

[7] = system: clinical S. aureus isolate BF4; experiment: Broth microdilution MIC, clinical S. aureus isolate BF4; format: cell-based; settings: Staphylococcus aureus
Experimental: as §1

[8] = system: Enterococcus faecium; experiment: Broth microdilution MIC, Enterococcus faecium; format: cell-based
Experimental: as §1

[9] = system: Klebsiella pneumoniae; experiment: Broth microdilution MIC, Klebsiella pneumoniae; format: cell-based
Experimental: as §1

[10] = system: Acinetobacter baumannii; experiment: Broth microdilution MIC, Acinetobacter baumannii; format: cell-based
Experimental: as §1

[11] = system: Enterobactor aerogens; experiment: Broth microdilution MIC, Enterobactor aerogens; format: cell-based
Experimental: as §1

[12] = system: Pseudomonas aeruginosa; experiment: Broth microdilution MIC, Pseudomonas aeruginosa; format: cell-based
Experimental: as §1

[13] = system: MRSA MW2; experiment: Sytox green membrane permeabilization; format: cell-based, Staphylococcus aureus; settings: compounds at 64 µg/mL, monitored over 1 h
Experimental: To determine whether the compounds target bacterial membranes, MRSA MW2 was treated with the compounds and uptake of the membrane-impermeable DNA-binding fluorescent dye Sytox green was monitored over 1 h (Figure 4).
Sytox Green (Life Technologies, Needham, MA, USA) membrane permeabilization assays were performed as previously described. The experiments were carried out in duplicate in 96-well plates. Cells were grown to log phase and were harvested by centrifuging at 3700× g for 5 min. The cells were washed twice with PBS and resuspended to OD600 = 0.2, following which 5 µM Sytox green was added to the cells and the bacteria-dye mixture were incubated in the dark for 30 mins.
Cell suspensions (50 µL) were added to 50 µL of test compounds (64 µg/mL in PBS) and fluorescence intensity was measured (excitation 485 nm, emission 530 nm) periodically over 60 min.

[14] = system: MRSA-MW2; experiment: Checkerboard synergy assay (FIC index); format: cell-based, Staphylococcus aureus; settings: synergy FIC ≤ 0.5
Experimental: The combination of two antibiotics with different modes of action can reduce bacterial resistance and sometimes even restore clinical efficacy of an antibiotic that has lost effectiveness. The five compounds were tested against MRSA-MW2 in the presence of five clinical antibiotics from different classes (i.e., polymyxin B, gentamycin, erythromycin, doxycycline, and oxacillin).
Antibacterial synergy for combinations of the compounds with each other and with clinical antibiotics (doxycycline, gentamicin, polymyxin-B, oxacillin, and erythromycin) was measured using checkerboard assays. In short, Cultures of MRSA-MW2 were adjusted to OD600 = 0.06 and one compound was arrayed horizontally and other vertically in 96 well plates. The assays were carried out in triplicate, exactly as described for the antibacterial susceptibility assays. The inhibitory effects of compound combinations were evaluated using the Fractional Inhibitory Concentration (FIC) index, derived from the formula:FIC index = FICA + FICB = [A]/MICA + [B]/MICB
MIC of substance A tested in combination /MIC of substance A tested alone + MIC of substance B tested in combination/MIC of substance B tested alone. Synergy is indicated when FIC ≤ 0.5, indifference when 0.5 ≤ FIC ≤ 4, and antagonism when FIC > 4. Experiments were performed in duplicate and report the average FIC index.

[15] = system: A549; experiment: MTT cytotoxicity, A549; settings: A549, 24 hr
Experimental: (§2) Mammalian cell lines HepG2 (hepatic cells), A549 (epithelial cells), and MKN-28 (gastric cells) were used to measure the anti-proliferative properties of test compounds, as described elsewhere [28]. Cells were grown in Dulbecco’s Modified Eagle Medium (DMEM) (Gibco, Waltham, MA, USA) supplemented with 10% Fetal Bovine Serum (FBS) (Gibco, Waltham, MA, USA) and 1% penicillin/streptomycin (Gibco, Waltham, MA, USA) and maintained at 37 °C in 5% CO2. After harvesting, the cells were suspended in DMEM and 100 µL was added to the wells of 96-well plates. The test compounds were serially diluted in serum and antibiotic free DMEM, added to the monolayer of cells, and incubated at 37 °C in 5% CO2 for 24 hr. Percentage survival was calculated by comparison to DMSO-treated vehicle controls. Assays were carried out in triplicate.

[16] = system: HepG2; experiment: MTT cytotoxicity, HepG2; settings: HepG2, 24 hr
Experimental: as §2

[17] = system: MKN-28; experiment: MTT cytotoxicity, MKN-28; settings: MKN-28, 24 hr
Experimental: as §2

[18] = system: Cav3.1 T-type channels; set-up: method as in PMID 14718587; settings: INS-1 cells; read-out: IC50 for inhibition of Cav3.1 T-type channels; cited from earlier work
[19] = system: HVA currents; set-up: method as in PMID 14718587; settings: INS-1 cells; read-out: IC50 for inhibition of HVA currents; cited from earlier work
[20] = Staphylococcus aureus, MRSA MW2, 18 h, 37 °C, read-out: MIC
[21] = Staphylococcus aureus, MRSA MW2, read-out: MBC
[22] = Staphylococcus aureus, stated in text across MRSA MW2 and four clinical S. aureus isolates, read-out: MIC against MRSA MW2 and the clinical isolates
[23] = Enterobactor aerogens, read-out: MIC

Row | MIC [3, 20] | MIC ([4]; BF1, read-out: MIC) | MIC ([5]; BF2, read-out: MIC) | MIC ([6]; BF3, read-out: MIC) | MIC ([7]; BF4, read-out: MIC) | MIC ([8]; read-out: MIC) | MIC ([9]; read-out: MIC) | MIC ([10]; read-out: MIC) | MIC [11, 23] | MIC ([12]; read-out: MIC) | SMILES | Z-Score [1] | median post-infection survival [2] | MBC [3, 21] | cellular fluorescence (Sytox green uptake) [13] | Fractional Inhibitory Concentration (FIC) Index ([14]; with Doxycycline) | Fractional Inhibitory Concentration (FIC) Index ([14]; with Erythromycin) | Fractional Inhibitory Concentration (FIC) Index ([14]; with Gentamycin) | Fractional Inhibitory Concentration (FIC) Index ([14]; with Oxacillin) | Fractional Inhibitory Concentration (FIC) Index ([14]; with Polymyxin B) | Eukaryotic cell cytotoxicity [15] | also measured
1 | 8 µg/mL (≈ 14.7 µM) | 4 µg/mL (≈ 7.37 µM) | 4 µg/mL (≈ 7.37 µM) | 8 µg/mL (≈ 14.7 µM) | 8 µg/mL (≈ 14.7 µM) | 8 µg/mL (≈ 14.7 µM) | > 64 µg/mL | > 64 µg/mL | > 64 µg/mL | > 64 µg/mL | CC(C)c1onc(-c2c(Cl)cccc2Cl)c1COc1ccc(C=Cc2cccc(C(=O)O)c2)c(Cl)c1 [GW4064, 3-[2-[2-Chloro-4-[[3-(2,6-dichlorophenyl)-5-(1-methylethyl)-4-isoxazolyl]methoxy]phenyl]ethenyl]benzoic acid] | 3.28 | 2 days | > 64 µg/mL | no changes in cellular fluorescence | 2.06 | 1.0 | 0.5 | 1.0 | 0.75 | 16 µg/mL | MBC ([3]; MRSA MW2): >64 µg/mL; MIC [3, 22]: 4 to 8 µg/mL (≈ 7.37 to 14.7 µM); Eukaryotic cell cytotoxicity [16]: 4 µg/mL; Eukaryotic cell cytotoxicity [17]: 8 µg/mL
2 | 8 µg/mL | 4 µg/mL | 2 µg/mL | 4 µg/mL | 4 µg/mL | 8 µg/mL | > 64 µg/mL | > 64 µg/mL | > 64 µg/mL | > 64 µg/mL | CC(C)[C@H]1c2ccc(F)cc2CC[C@@]1(CCN(C)CCCc1nc2ccccc2[nH]1)OC(=O)C1CC1.Cl.Cl [NNC, (1S,2S)-2-[2-[[3-(1H-Benzimidazol-2-yl)propyl]methylamino]ethyl]-6-fluoro-1,2,3,4-tetrahydro-1-(1-methylethyl)-2-naphthalenyl cyclopropanecarboxylate dihydrochloride] | 5.83 | 2 days | > 64 µg/mL | increases in cellular fluorescence | 0.75 | 1.0 | 0.75 | 2.0 | 0.5 | 16 µg/mL | MBC ([3]; MRSA MW2): >64 µg/mL; IC50 [18]: 6.8 µM; IC50 [19]: > 100 µM; Eukaryotic cell cytotoxicity [16]: 2 µg/mL; Eukaryotic cell cytotoxicity [17]: 8 µg/mL
3 | 8 µg/mL (≈ 20.7 µM) | 8 µg/mL (≈ 20.7 µM) | 8 µg/mL (≈ 20.7 µM) | 8 µg/mL (≈ 20.7 µM) | 8 µg/mL (≈ 20.7 µM) | 8 µg/mL (≈ 20.7 µM) | > 64 µg/mL | > 64 µg/mL | > 64 µg/mL | > 64 µg/mL | CCCc1c(-c2ccc(O)cc2)nn(-c2ccc(O)cc2)c1-c1ccc(O)cc1 [PPT, 4,4′,4″-(4-Propyl-[1H]-pyrazole-1,3,5-triyl)trisphenol] | 5.54 | 2 days | 32 µg/mL (≈ 82.8 µM) | increases in cellular fluorescence | 0.5 | 0.75 | 1.0 | 1.0 | 2.0 | 16 µg/mL | MIC [3, 22]: 8 µg/mL (≈ 20.7 µM); Eukaryotic cell cytotoxicity [16]: 8 µg/mL; Eukaryotic cell cytotoxicity [17]: 8 µg/mL
4 | – | – | – | – | – | – | – | – | – | – | CN[C@H](CC(C)C)C(=O)N[C@H]1C(=O)N[C@@H](CC(N)=O)C(=O)N[C@H]2C(=O)N[C@H]3C(=O)N[C@H](C(=O)N[C@H](C(=O)O)c4cc(O)cc(O)c4-c4cc3ccc4O)[C@H](O)c3ccc(c(Cl)c3)Oc3cc2cc(c3O[C@@H]2O[C@H](CO)[C@@H](O)[C@H](O)[C@H]2O[C@H]2C[C@](C)(N)[C@H](O)[C@H](C)O2)Oc2ccc(cc2Cl)[C@H]1O [Vancomycin] | – | – | – | – | – | – | – | – | – | – | MBC ([3]; Staphylococcus aureus, MRSA): 8 µg/mL (≈ 5.52 µM); MIC ([3]; Staphylococcus aureus, MRSA, 18 h): 1 µg/mL (≈ 0.69 µM); MIC [4]: 2 µg/mL (≈ 1.38 µM); MIC [5]: 2 µg/mL (≈ 1.38 µM); MIC [6]: 2 µg/mL (≈ 1.38 µM); MIC [7]: 2 µg/mL (≈ 1.38 µM); MIC [8]: 4 µg/mL (≈ 2.76 µM); MIC [9]: > 64 µg/mL; MIC [10]: > 64 µg/mL; MIC [11]: > 64 µg/mL; MIC [12]: > 64 µg/mL
